Positions of bridges follow the written chain, without caps; N, C: chain ends. Non-standard residues stand in square brackets, D forms with d. Residues, ends and D or L forms follow the SMILES beside them. *: point of attachment. Ala(1-CH2COOH-inden-3-yl) = N[C@@H](CC1=CC(CC(=O)O)c2ccccc21)C(=O)O; Trp(1-CH2COOH) = N[C@@H](Cc1cn(CC(=O)O)c2ccccc12)C(=O)O; X3 = NC(=O)[C@H](CC(=O)O)NC(=O)CCC(=O)NCCCOCCOCCOCCCN*; NH(CH2)12COOH = O=C(O)CCCCCCCCCCCCN*; Hyp = O=C(O)[C@@H]1C[C@@H](O)CN1; X32 = O=C(O)CCCCCCCCCCCCCCCCCCN*; NMeNle = CCCC[C@H](NC)C(=O)O; NMeA = CN[C@@H](C)C(=O)O; Pra = C#CC[C@H](N)C(=O)O; Aun = NCCCCCCCCCCC(=O)O; Dab = NCC[C@H](N)C(=O)O; Dap = NC[C@H](N)C(=O)O
These molecules were tested against T1, PD-L1 (Homo sapiens, UniProt Q9NZQ7) (assay: PD-1/PD-L1 Homogenous Time-Resolved Fluorescence (HTRF) binding assay (PD-1-Ig/PD-L1-His)). Conditions: inhibition of PD-1-Ig binding to PD-L1-TVMV-His; value given as range class; read-out: HTRF IC50.
T1 construct: hPDL1(19-239)-TVMV-His; made in house; host or cells: HEK293T
T1 sequence (Q9NZQ7 with tags, fused parts or gaps): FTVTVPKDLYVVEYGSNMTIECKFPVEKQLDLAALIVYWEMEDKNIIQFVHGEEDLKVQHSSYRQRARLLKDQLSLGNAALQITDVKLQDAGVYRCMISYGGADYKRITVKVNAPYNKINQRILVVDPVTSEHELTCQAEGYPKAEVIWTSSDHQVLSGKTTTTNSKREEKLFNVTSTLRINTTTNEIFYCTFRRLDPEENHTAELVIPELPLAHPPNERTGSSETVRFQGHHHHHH
Summary of the method: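 HTRF competition in dPBS with 0.1% BSA and 0.05% Tween-20: 20 nM PD-1-Ig added after 15 min compound pre-incubation with 10 nM PD-L1-His, then another 15 min. Signal (665/620 nm) after 30 min with APC anti-His (20 nM) and Eu anti-Ig (1 nM).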
Work on CCCCCCCCCCCCCCCCNC(=O)[C@H](CC(=O)O)NC(=O)CCCCCCCCCCNC(=O)[C@@H]1CSCC(=O)N[C@@H](Cc2ccc(O)cc2)C(=O)N(C)[C@@H](C)C(=O)N[C@@H](CC(N)=O)C(=O)N2CCC[C@H]2C(=O)N[C@@H](Cc2cnc[nH]2)C(=O)N[C@@H](CC(C)C)C(=O)N2C[C@H](O)C[C@H]2C(=O)N[C@@H](Cc2c[nH]c3ccccc23)C(=O)N[C@@H](CO)C(=O)N[C@@H](Cc2c[nH]c3ccccc23)C(=O)N(C)[C@@H](CCCC)C(=O)N(C)[C@@H](CCCC)C(=O)N[C@@H](CCCNC(=N)N)C(=O)N1 [Example 11119] yielded an IC50 of 0.1 to 1.6 µM. C#CC[C@H](NC(=O)CNC(=O)[C@@H]1CSCC(=O)N[C@@H](Cc2ccc(O)cc2)C(=O)N(C)[C@@H](C)C(=O)N[C@@H](CC(N)=O)C(=O)N2CCC[C@H]2C(=O)N[C@@H](CN)C(=O)N[C@@H](CC(C)C)C(=O)N2C[C@H](O)C[C@H]2C(=O)N[C@@H](Cc2c[nH]c3ccccc23)C(=O)N[C@@H](CO)C(=O)N[C@@H](Cc2cn(CC(=O)O)c3ccccc23)C(=O)N(C)[C@@H](CCCC)C(=O)N(C)[C@@H](CCCC)C(=O)N[C@@H](CCC(=O)O)C(=O)N1)C(N)=O [INT 1400I, ClAc-Tyr-mAla-Asn-Pro-Dap-Leu-Hyp-Trp-Ser-[(S)-2-amino-3-(1-(carboxymethyl)-1H-indol-3-yl)propanoic acid]-mNle-mNle-E-Cys-Gly-[(S)-propargylglycine]] ({CH2CO}-Y[NMeA]NP[Dap]L[Hyp]WS[Trp(1-CH2COOH)][NMeNle][NMeNle]ECG[Pra]-NH2; thioether N-14) showed an IC50 of 0.01 to 0.099 µM. In the case of C#CC[C@H](NC(=O)CNC(=O)[C@@H]1CSCC(=O)N[C@@H](Cc2ccc(O)cc2)C(=O)N(C)[C@@H](C)C(=O)N[C@@H](CC(=O)O)C(=O)N2CCC[C@H]2C(=O)N[C@@H](Cc2c[nH]cn2)C(=O)N[C@@H](CCCCN)C(=O)N2C[C@H](O)C[C@H]2C(=O)N[C@@H](Cc2c[nH]c3ccccc23)C(=O)N[C@@H](CCCCN)C(=O)N[C@@H](Cc2c[nH]c3ccccc23)C(=O)N(C)[C@@H](CCCC)C(=O)N(C)[C@@H](CCCC)C(=O)N[C@@H](CCC(=O)O)C(=O)N1)C(=O)NCC(N)=O [INT 1400A] ({CH2CO}-Y[NMeA]DPHK[Hyp]WKW[NMeNle][NMeNle]ECG[Pra]G-NH2; thioether N-14), the IC50 is reported as 0.0003 to 0.0099 µM. CCCC[C@H]1C(=O)N(C)[C@@H](CCCC)C(=O)N[C@@H](CC(C)C)C(=O)N[C@H](C(=O)NCC(=O)NCC(=O)NCCCCCCCCCCCCCCCCCCC(=O)O)CSCC(=O)N[C@@H](Cc2ccc(O)cc2)C(=O)N(C)[C@@H](C)C(=O)N[C@@H](CC(N)=O)C(=O)N2CCC[C@H]2C(=O)N[C@@H](CN)C(=O)N[C@@H](CC(C)C)C(=O)N2C[C@H](O)C[C@H]2C(=O)N[C@@H](Cc2c[nH]c3ccccc23)C(=O)N[C@@H](CCN)C(=O)N[C@@H](Cc2cn(CC(=O)O)c3ccccc23)C(=O)N1C [Example 11193] ({CH2CO}-Y[NMeA]NP[Dap]L[Hyp]W[Dab][Trp(1-CH2COOH)][NMeNle][NMeNle]LCGG-X32; thioether N-14) gave an IC50 of 0.01 to 0.099 µM. Work on CCCC[C@H]1C(=O)N(C)[C@@H](CCCC)C(=O)N[C@@H](CC(C)C)C(=O)N[C@H](C(=O)NCC(=O)NCCCOCCOCCOCCCNC(=O)CCC(=O)N[C@@H](CC(=O)O)C(N)=O)CSCC(=O)N[C@@H](Cc2ccc(O)cc2)C(=O)N(C)[C@@H](C)C(=O)N[C@@H](CC(N)=O)C(=O)N2CCC[C@H]2C(=O)N[C@@H](Cc2cnc[nH]2)C(=O)N[C@@H](CCC(=O)O)C(=O)N2C[C@H](O)C[C@H]2C(=O)N[C@@H](Cc2c[nH]c3ccccc23)C(=O)N[C@@H](CCN)C(=O)N[C@@H](Cc2c[nH]c3ccccc23)C(=O)N1C [Example 11065] ({CH2CO}-Y[NMeA]NPHE[Hyp]W[Dab]W[NMeNle][NMeNle]LCG-X3; thioether N-14) yielded an IC50 of 0.01 to 0.099 µM. CCCC[C@H]1C(=O)N(C)[C@@H](CCCC)C(=O)N[C@@H](CC(C)C)C(=O)N[C@H](C(=O)NCC(=O)N[C@@H](CC(=O)O)C(=O)NCC(=O)NCCCCCCCCCCCCC(=O)O)CSCC(=O)N[C@@H](Cc2ccc(O)cc2)C(=O)N(C)[C@@H](C)C(=O)N[C@@H](CC(N)=O)C(=O)N2CCC[C@H]2C(=O)N[C@@H](CN)C(=O)N[C@@H](CC(C)C)C(=O)N2C[C@H](O)C[C@H]2C(=O)N[C@@H](Cc2c[nH]c3ccccc23)C(=O)N[C@@H](CCN)C(=O)N[C@@H](Cc2cn(CC(=O)O)c3ccccc23)C(=O)N1C [Example 11223] ({CH2CO}-Y[NMeA]NP[Dap]L[Hyp]W[Dab][Trp(1-CH2COOH)][NMeNle][NMeNle]LCGDG-{NH(CH2)12COOH}; thioether N-14) was tested, and the IC50 was 0.01 to 0.099 µM. For CCCC[C@H]1C(=O)N(C)[C@@H](CCCC)C(=O)N[C@@H](CC(C)C)C(=O)N[C@H](C(=O)NCC(=O)N[C@@H](Cc2cn(CCOCCOCCOCCOCCOCCOCCOCCOCCOCCOCCOCCNC(=O)CC[C@H](NC(=O)CCCCCCCCCCCCCCCCC(=O)O)C(=O)O)nn2)C(=O)O)CSCC(=O)N[C@@H](Cc2ccc(O)cc2)C(=O)N2CCCC[C@H]2C(=O)N[C@@H](CC(N)=O)C(=O)N2CCC[C@H]2C(=O)N[C@@H](CNC)C(=O)N[C@@H](CC(C)C)C(=O)N2C[C@H](O)C[C@H]2C(=O)N[C@@H](Cc2c[nH]c3ccccc23)C(=O)N[C@@H](CCN)C(=O)N[C@@H](Cc2cn(CC(=O)O)c3ccccc23)C(=O)N1C [Example 14105], the IC50 was 0.1 to 1.6 µM. C#CC[C@H](NC(=O)CNC(=O)[C@@H]1CSCC(=O)N[C@@H](Cc2ccc(O)cc2)C(=O)N(C)[C@@H](C)C(=O)N[C@@H](CC(=O)O)C(=O)N2CCC[C@H]2C(=O)N[C@@H](Cc2c[nH]cn2)C(=O)N[C@@H](CCCCN)C(=O)N2C[C@H](O)C[C@H]2C(=O)N[C@@H](Cc2c[nH]c3ccccc23)C(=O)N[C@@H](CCCCN)C(=O)N[C@@H](Cc2c[nH]c3ccccc23)C(=O)N(C)[C@@H](CCCC)C(=O)N(C)[C@@H](CCCC)C(=O)N[C@@H](CCC(=O)O)C(=O)N1)C(=O)N[C@@H](CC(=O)O)C(N)=O [INT 1400B] ({CH2CO}-Y[NMeA]DPHK[Hyp]WKW[NMeNle][NMeNle]ECG[Pra]D-NH2; thioether N-14) gave an IC50 of 0.0003 to 0.0099 µM. For CCCC[C@H]1C(=O)N(C)[C@@H](CCCC)C(=O)N[C@@H](CC(C)C)C(=O)N[C@H](C(=O)NCCCCCCCCCCC(=O)N[C@@H](CCC(=O)O)C(=O)O)CSCC(=O)N[C@@H](Cc2ccc(O)cc2)C(=O)N(C)[C@@H](C)C(=O)N[C@@H](CC(N)=O)C(=O)N2CCC[C@H]2C(=O)N[C@@H](Cc2cnc[nH]2)C(=O)N[C@@H](CCC(=O)O)C(=O)N2C[C@H](O)C[C@H]2C(=O)N[C@@H](Cc2c[nH]c3ccccc23)C(=O)N[C@@H](CCN)C(=O)N[C@@H](Cc2c[nH]c3ccccc23)C(=O)N1C [Example 11130] ({CH2CO}-Y[NMeA]NPHE[Hyp]W[Dab]W[NMeNle][NMeNle]LC[Aun]E-OH; thioether N-14), the IC50 was 0.01 to 0.099 µM. C#CC[C@H](NC(=O)CNC(=O)[C@@H]1CSCC(=O)N[C@@H](Cc2ccc(O)cc2)C(=O)N(C)[C@@H](C)C(=O)N[C@@H](CC(=O)O)C(=O)N2CCC[C@H]2C(=O)N[C@@H](Cc2c[nH]cn2)C(=O)N[C@@H](CCC(N)=O)C(=O)N2C[C@H](O)C[C@H]2C(=O)N[C@@H](Cc2c[nH]c3ccccc23)C(=O)N[C@@H](CO)C(=O)N[C@@H](Cc2c[nH]c3ccccc23)C(=O)N(C)[C@@H](CCCC)C(=O)N(C)[C@@H](CCCC)C(=O)N[C@@H](CCC(=O)O)C(=O)N1)C(N)=O [INT 1400H, ClAc-Tyr-mAla-Asp-Pro-His-Gln-Hyp-Trp-Ser-Trp-mNle-mNle-Glu-Cys-Gly-[(S)-propargylglycine]] ({CH2CO}-Y[NMeA]DPHQ[Hyp]WSW[NMeNle][NMeNle]ECG[Pra]-NH2; thioether N-14) showed an IC50 of 0.0003 to 0.0099 µM. With CCCC[C@H]1C(=O)N(C)[C@@H](CCCC)C(=O)N[C@@H](CC(C)C)C(=O)N[C@H](C(=O)NCC(=O)NCC(=O)NCC(=O)NCCCCCCCCCCC(=O)O)CSCC(=O)N[C@@H](Cc2ccc(O)cc2)C(=O)N(C)[C@@H](C)C(=O)N[C@@H](CC(=O)O)C(=O)N2CCC[C@H]2C(=O)N[C@@H](Cc2cnc[nH]2)C(=O)N[C@@H](CCC(=O)O)C(=O)N2C[C@H](O)C[C@H]2C(=O)N[C@@H](Cc2c[nH]c3ccccc23)C(=O)N[C@@H](CCN)C(=O)N[C@@H](Cc2cn(CC(=O)O)c3ccccc23)C(=O)N1C [Example 11098] ({CH2CO}-Y[NMeA]DPHE[Hyp]W[Dab][Trp(1-CH2COOH)][NMeNle][NMeNle]LCGGG[Aun]-OH; thioether N-14) the IC50 was 0.01 to 0.099 µM. Molecule CCCC[C@H]1C(=O)N(C)[C@@H](CCCC)C(=O)N[C@@H](CC(C)C)C(=O)N[C@H](C(=O)NCCCCCCCCCCC(=O)O)CSCC(=O)N[C@@H](Cc2ccc(O)cc2)C(=O)N(C)[C@@H](C)C(=O)N[C@@H](CC(N)=O)C(=O)N2CCC[C@H]2C(=O)N[C@@H](Cc2cnc[nH]2)C(=O)N[C@@H](CCC(=O)O)C(=O)N2C[C@H](O)C[C@H]2C(=O)N[C@@H](Cc2c[nH]c3ccccc23)C(=O)N[C@@H](CCN)C(=O)N[C@@H](CC2=CC(CC(=O)O)c3ccccc32)C(=O)N1C (stereo partly shown) [Example 11076] ({CH2CO}-Y[NMeA]NPHE[Hyp]W[Dab][Ala(1-CH2COOH-inden-3-yl)][NMeNle][NMeNle]LC[Aun]-OH; thioether N-14) has an IC50 of 0.01 to 0.099 µM. In the case of CCCC[C@H]1C(=O)N(C)[C@@H](CCCC)C(=O)N[C@@H](CC(C)C)C(=O)N[C@H](C(=O)NCCCOCCOCCOCCCNC(=O)CCC(=O)N[C@@H](CC(=O)O)C(N)=O)CSCC(=O)N[C@@H](Cc2ccc(O)cc2)C(=O)N(C)[C@@H](C)C(=O)N[C@@H](CC(N)=O)C(=O)N2CCC[C@H]2C(=O)N[C@@H](Cc2cnc[nH]2)C(=O)N[C@@H](CCC(=O)O)C(=O)N2C[C@H](O)C[C@H]2C(=O)N[C@@H](Cc2c[nH]c3ccccc23)C(=O)N[C@@H](CCN)C(=O)N[C@@H](Cc2cn(CC(=O)O)c3ccccc23)C(=O)N1C [Example 11067] ({CH2CO}-Y[NMeA]NPHE[Hyp]W[Dab][Trp(1-CH2COOH)][NMeNle][NMeNle]LC-X3; thioether N-14), the IC50 is reported as 0.01 to 0.099 µM.

Reference: patent publication US10633419B2, “Immunomodulators” (BRISTOL-MYERS SQUIBB COMPANY, priority 2014, dated 2020)
